Experimental findings from patent US20250214960A1, “COMPOUNDS HAVING ACTIVITY OF DEGRADING GSPT1 AND APPLICATION THEREOF” (SHANGHAI MEIZER PHARMACEUTICALS CO., LTD., priority 2021, published 2025) are described below.

The structures appear in SMILES notation. Read-outs that look alike come from different tables or passages of the source.

The test addresses T1, GSPT1 protein (Homo sapiens, UniProt P15170+Q96SW2).
T1 construct: endogenous in cells; host or cells: Jeko-1
As to the kind of experiment: Western blot detection of degradation activity of GSPT1 protein in Jeko-1 cells. Format: cell-based. To be noted: for inhibition at 0.1 µM / inhibition at 10 µM / inhibition at 0.01 µM / inhibition at 1 µM: JeKo-1, 24 h, read-out: GSPT1 degradation rate (%). The method, then: Test Example 1: Western Blot Detection of Degradation Activity of GSPT1 Protein by the Compounds
Cell line: Jeko-1 cell line was cultured with an RPMI1640 media containing 20% fetal bovine serum in an incubator at 37° C., 5% CO2, and saturated humidity.
DMSO control group and test compound (concentration shown in the table below) were set up, after processing for 24 hours, the cells were collected, pre-cooled cell lysate was added and left on ice for 10 minutes. The total protein of the cells was extracted, and the protein concentration was measured and quantified using the BCA method. Routine gel preparation, sample loading, electrophoresis were conducted, then the membrane was transferred, and sealed, wherein the primary antibody was diluted with a blocking solution at 1:500-5000. The membrane was immersed in the diluted primary antibody and incubated overnight at 4° C. After rinsing, the secondary antibody was diluted with a sealing solution at 1:10000-20000, the membrane was immersed in the diluted secondary antibody, and incubated at room temperature for 45 minutes. After rinsing, the results were tested on ODYSSEY (Li-COR). GAPDH was used as an internal reference control.
Image J software was used to perform gray level analysis on each band and the degradation rate of GSPT1 protein by the compounds was calculated.
On the technique in general: A western blot detects proteins with antibodies after separation by electrophoresis.

T1 sequence (P15170 whole entry): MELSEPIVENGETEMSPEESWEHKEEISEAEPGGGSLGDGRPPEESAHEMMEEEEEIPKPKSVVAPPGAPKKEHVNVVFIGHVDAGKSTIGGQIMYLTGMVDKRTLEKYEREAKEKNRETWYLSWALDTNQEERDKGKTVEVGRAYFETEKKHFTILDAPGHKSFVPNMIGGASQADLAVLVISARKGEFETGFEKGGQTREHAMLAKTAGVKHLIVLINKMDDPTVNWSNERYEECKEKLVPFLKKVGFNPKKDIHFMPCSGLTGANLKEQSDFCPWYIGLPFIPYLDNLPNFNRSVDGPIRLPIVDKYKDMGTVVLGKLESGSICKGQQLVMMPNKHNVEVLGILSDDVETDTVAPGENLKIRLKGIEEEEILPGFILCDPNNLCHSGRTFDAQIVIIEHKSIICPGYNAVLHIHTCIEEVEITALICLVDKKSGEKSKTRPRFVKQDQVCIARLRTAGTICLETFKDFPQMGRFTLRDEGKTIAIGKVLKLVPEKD
T1 sequence (Q96SW2 whole entry): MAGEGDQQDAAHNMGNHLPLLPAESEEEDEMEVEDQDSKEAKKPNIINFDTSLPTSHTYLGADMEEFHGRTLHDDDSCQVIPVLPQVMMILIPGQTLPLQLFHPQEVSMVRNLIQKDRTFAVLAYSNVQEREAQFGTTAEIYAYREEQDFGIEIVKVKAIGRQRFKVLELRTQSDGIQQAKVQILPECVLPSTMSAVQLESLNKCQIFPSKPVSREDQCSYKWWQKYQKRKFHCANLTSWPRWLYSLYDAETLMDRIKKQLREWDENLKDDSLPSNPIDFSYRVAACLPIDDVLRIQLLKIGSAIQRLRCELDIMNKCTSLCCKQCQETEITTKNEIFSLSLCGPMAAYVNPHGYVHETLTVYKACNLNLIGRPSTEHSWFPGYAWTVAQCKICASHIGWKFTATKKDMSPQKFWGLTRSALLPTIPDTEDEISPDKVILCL
T1 sequence (Q16531 whole entry partner): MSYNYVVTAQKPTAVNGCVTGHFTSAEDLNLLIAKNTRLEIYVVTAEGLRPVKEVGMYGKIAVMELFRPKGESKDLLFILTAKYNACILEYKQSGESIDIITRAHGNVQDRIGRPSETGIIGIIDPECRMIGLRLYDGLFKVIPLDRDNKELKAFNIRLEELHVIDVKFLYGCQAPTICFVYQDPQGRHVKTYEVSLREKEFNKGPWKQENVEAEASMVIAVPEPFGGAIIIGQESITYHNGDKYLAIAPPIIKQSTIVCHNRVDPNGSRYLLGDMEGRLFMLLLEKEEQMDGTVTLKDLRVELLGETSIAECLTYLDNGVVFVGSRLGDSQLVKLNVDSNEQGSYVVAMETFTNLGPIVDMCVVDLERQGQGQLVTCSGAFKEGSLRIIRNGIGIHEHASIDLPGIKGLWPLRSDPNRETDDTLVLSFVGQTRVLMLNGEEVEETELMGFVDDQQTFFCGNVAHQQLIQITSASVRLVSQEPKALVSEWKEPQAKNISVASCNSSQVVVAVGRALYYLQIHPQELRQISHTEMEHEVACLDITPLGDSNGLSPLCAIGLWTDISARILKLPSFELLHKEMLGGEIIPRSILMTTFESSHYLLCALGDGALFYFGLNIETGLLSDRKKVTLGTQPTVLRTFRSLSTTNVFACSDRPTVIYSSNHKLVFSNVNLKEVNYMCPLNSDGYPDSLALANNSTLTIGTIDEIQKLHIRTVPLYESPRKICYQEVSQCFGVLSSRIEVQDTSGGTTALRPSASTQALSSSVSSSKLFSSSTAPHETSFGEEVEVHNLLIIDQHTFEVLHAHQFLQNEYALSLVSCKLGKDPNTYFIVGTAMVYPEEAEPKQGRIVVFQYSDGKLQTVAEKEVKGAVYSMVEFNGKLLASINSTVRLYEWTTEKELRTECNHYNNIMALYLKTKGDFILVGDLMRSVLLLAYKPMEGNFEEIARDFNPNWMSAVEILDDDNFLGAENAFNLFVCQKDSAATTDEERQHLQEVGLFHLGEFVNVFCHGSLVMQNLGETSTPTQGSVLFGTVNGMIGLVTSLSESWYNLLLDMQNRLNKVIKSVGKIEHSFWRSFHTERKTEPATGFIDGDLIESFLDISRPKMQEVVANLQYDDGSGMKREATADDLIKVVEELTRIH

Take `N[C@H](C(=O)NCc1ccc2c(c1)CN(C1CCC(=O)NC1=O)C2=O)c1ccccc1` (stereo partly drawn) [Compound 4-87-2]: the inhibition at 0.1 µM (100 nM, Jeko-1 cells, 24 hours) turned out to be 21%. The inhibition at 10 µM (10 μM, Jeko-1 cells, 24 hours) turned out to be 15%.

`CC(C)(C)OC(=O)N[C@@H](C(=O)NCc1ccc2c(c1)CN(C1CCC(=O)NC1=O)C2=O)c1ccccc1` (stereo partly drawn) [Compound 4-108, Tert butyl ((1R)-2-((2-(2-(2,6-Dioxopiperidin-3-yl)-1-oxoisoindolin-5-yl)methyl)amino)-2-oxo-1-phenylethyl) carbamate]: under “10 nM, Jeko-1 cells, 24 hours”, the inhibition at 0.01 µM was found to be 10%. For the setting “1 μM, Jeko-1 cells, 24 hours”, the inhibition at 1 µM came out at 95%.

Turning to `CC(C)(C)OC(=O)NC(CC(=O)NCc1ccc2c(c1)CN(C1CCC(=O)NC1=O)C2=O)c1ccccc1` (stereo not drawn) [Compound 4-130, Tert butyl (3-((2-(2,6-dioxypiperidin-3-yl)-1-oxoisoindolin-5-yl)methyl)amino)-3-oxo-1-phenylpropyl) carbamate], the inhibition at 0.1 µM (100 nM, Jeko-1 cells, 24 hours) was 51%. Besides, where the note is “10 μM, Jeko-1 cells, 24 hours”, the inhibition at 10 µM came out at 94%.

Take `CC(C)(C)OC(=O)NCC(C(=O)NCc1ccc2c(c1)CN(C1CCC(=O)NC1=O)C2=O)c1ccccc1` (stereo not drawn) [Compound 4-131]: the inhibition at 0.1 µM (100 nM, Jeko-1 cells, 24 hours) is 96%. In addition, the inhibition at 10 µM (10 μM, Jeko-1 cells, 24 hours) is 97%.

Turning to `CC(C)(C)OC(=O)N[C@H](Cc1ccccc1)C(=O)NCc1ccc2c(c1)CN(C1CCC(=O)NC1=O)C2=O` (stereo partly drawn) [Compound 4-132, Tert butyl ((2R)-1-((2-(2,6-dioxypiperidin-3-yl)-1-oxoisoindoline-5-yl)methyl)amino)-1-oxo-3-phenylpro p-2-yl) carbamate], the inhibition at 0.1 µM (100 nM, Jeko-1 cells, 24 hours) was found to be 93%. Besides, the inhibition at 10 µM (10 μM, Jeko-1 cells, 24 hours) is 96%.

Consider `CCOC(=O)N[C@H](C(=O)NCc1ccc2c(c1)CN(C1CCC(=O)NC1=O)C2=O)c1ccccc1` (stereo partly drawn) [Compound 4-138, Ethyl ((1S)-2-((2-(2,6-dioxypiperidin-3-yl)-1-oxoisoindoline-5-yl)methyl)amino)-2-oxo-1-phenylethyl) carbamate], for which the inhibition at 0.1 µM (100 nM, Jeko-1 cells, 24 hours) worked out at 31%. The inhibition at 10 µM (10 μM, Jeko-1 cells, 24 hours) amounted to 88%.

For `O=C1CCC(N2Cc3cc(CNC(=O)[C@@H](NC(=O)OCc4ccccc4)c4ccccc4)ccc3C2=O)C(=O)N1` (stereo partly drawn) [Compound 4-139, Benzyl ((1S)-2-((2-(2,6-dioxypiperidin-3-yl)-1-oxoisoindoline-5-yl)methyl)amino)-2-oxo-1-phenylethyl) carbamate], the inhibition at 0.1 µM (100 nM, Jeko-1 cells, 24 hours) is 98%. Besides, the inhibition at 10 µM (10 μM, Jeko-1 cells, 24 hours) amounted to 97%.

In the case of `CC(C)OC(=O)N[C@H](C(=O)NCc1ccc2c(c1)CN(C1CCC(=O)NC1=O)C2=O)c1ccccc1` (stereo partly drawn) [Compound 4-160, Isopropyl ((1S)-2-((2-(2,6-dioxypiperidin-3-yl)-1-oxoisoindoline-5-yl)methyl)amino)-2-oxo-1-phenylethy 1) carbamate], the inhibition at 0.1 µM was 96% and the inhibition at 10 µM came to 89%.

Consider `CC(C)(C)OC(=O)NC[C@@H](Cc1ccccc1)C(=O)NCc1ccc2c(c1)CN(C1CCC(=O)NC1=O)C2=O` (stereo partly drawn) [Compound 4-171, Tert butyl ((2R)-2-benzyl-3-((2-(2,6-dioxypiperidin-3-yl)-1-oxoisoindolin-5-yl)methyl)amino)-3-oxopropyl) carbamate], for which, under “100 nM, Jeko-1 cells, 24 hours”, the inhibition at 0.1 µM was 29%. In addition, the inhibition at 10 µM (10 μM, Jeko-1 cells, 24 hours) came out at 88%.

For `CC(C)[C@@H]1CC[C@@H](C)C[C@H]1OC(=O)N[C@H](C(=O)NCc1ccc2c(c1)CN(C1CCC(=O)NC1=O)C2=O)c1ccccc1` (stereo partly drawn) [Compound 4-175b], the inhibition at 0.01 µM amounted to 98% and the inhibition at 1 µM stood at 99%.

For the compound `Cc1ccc(S(=O)(=O)N[C@H](C(=O)NCc2ccc3c(c2)CN(C2CCC(=O)NC2=O)C3=O)c2ccccc2)cc1` (stereo partly drawn) [Compound 4-176], the inhibition at 0.1 µM (100 nM, Jeko-1 cells, 24 hours) was 35%. The inhibition at 10 µM (10 μM, Jeko-1 cells, 24 hours) is 53%.

`O=C1CCC(N2Cc3cc(CNC(=O)[C@@H](NC(=O)NCc4ccccc4)c4ccccc4)ccc3C2=O)C(=O)N1` (stereo partly drawn) [Compound 4-184, (2S)-2-(3-benzylurea)-N-((2-(2,6-dioxopyridin-3-yl)-1-oxoisoidoline-5-yl)methyl)-2-phenylacetamide]: the inhibition at 0.1 µM (100 nM, Jeko-1 cells, 24 hours) was found to be 21%. In addition, the inhibition at 10 µM (10 μM, Jeko-1 cells, 24 hours) amounted to 85%.

`CC(C)(C)NC(=O)CNC(Cc1ccccc1)C(=O)NCc1ccc2c(c1)CN(C1CCC(=O)NC1=O)C2=O` (stereo not drawn) [Compound 4-186]: the inhibition at 0.1 µM (100 nM, Jeko-1 cells, 24 hours) worked out at 26%. Further, for the setting “10 μM, Jeko-1 cells, 24 hours”, the inhibition at 10 µM was found to be 56%.

Regarding `CC(C)(C)NC(=O)NCC(Cc1ccccc1)C(=O)NCc1ccc2c(c1)CN(C1CCC(=O)NC1=O)C2=O` (stereo not drawn) [Compound 4-188, 2-Benzyl-3-(3-(tertbutyl)urea)-N-((2-(2,6-dioxypiperidin-3-yl)-1-oxoisoindoline-5-yl)methyl) propionamide], the inhibition at 0.1 µM (100 nM, Jeko-1 cells, 24 hours) turned out to be 32%. The inhibition at 10 µM (10 μM, Jeko-1 cells, 24 hours) was determined as 63%.

Consider `COC(C(=O)N[C@H](C(=O)NCc1ccc2c(c1)CN(C1CCC(=O)NC1=O)C2=O)c1ccccc1)c1ccccc1` (stereo partly drawn) [Compound 4-199], for which the inhibition at 0.1 µM (100 nM, Jeko-1 cells, 24 hours) was found to be 14%. For the same compound, the inhibition at 10 µM (10 μM, Jeko-1 cells, 24 hours) came out at 81%.

`O=C1CCC(N2Cc3cc(CNC(=O)C(CNC(=O)OC4CCCC4)c4ccccc4)ccc3C2=O)C(=O)N1` (stereo not drawn) [Compound 5-3, Cyclopentyl (3-((2-(2,6-dioxypiperidin-3-yl)-1-oxoisoindolin-5-yl)methyl)amino)-3-oxo-2-phenylpropyl) carbamate]: the inhibition at 0.1 µM was determined as 76% and the inhibition at 10 µM stood at 49%.

For `O=C1CCC(N2Cc3cc(CNC(=O)C(CNC(=O)C4CCCC4)c4ccccc4)ccc3C2=O)C(=O)N1` (stereo not drawn) [Compound 5-9], the “GSPT1 degradation rate (%)” value runs as follows: (100 nM, Jeko-1 cells, 24 hours) 45%; (10 μM, Jeko-1 cells, 24 hours) 93%.

Take `O=C1CCC(N2Cc3cc(CNC(=O)C(CNC(=O)Nc4ccccc4)c4ccccc4)ccc3C2=O)C(=O)N1` (stereo not drawn) [Compound 5-11, N-((2-(2,6-dioxypiperidin-3-yl)-1-oxoisoindolin-5-yl)methyl)-2-phenyl-3-(3-phenylurea) propionamide]: the inhibition at 0.1 µM stood at 17% and the inhibition at 10 µM is 77%.

In the case of `CC(C)(C)NC(=O)NCC(C(=O)NCc1ccc2c(c1)CN(C1CCC(=O)NC1=O)C2=O)c1ccccc1` (stereo not drawn) [Compound 5-12], the inhibition at 0.1 µM (100 nM, Jeko-1 cells, 24 hours) was found to be 18%. Besides, the inhibition at 10 µM (10 μM, Jeko-1 cells, 24 hours) stood at 71%.

For the compound `CC(C)(C)C(=O)NCC(C(=O)NCc1ccc2c(c1)CN(C1CCC(=O)NC1=O)C2=O)c1ccccc1` (stereo not drawn) [Compound 5-23, N-((2-(2,6-dioxypiperidin-3-yl)-1-oxoisoidoline-5-yl)methyl)-2-phenyl-3-terpentylaminopropionamide], the inhibition at 0.1 µM (100 nM, Jeko-1 cells, 24 hours) came to 28%. The inhibition at 10 µM (10 μM, Jeko-1 cells, 24 hours) was 93%.

As to `O=C1CCC(N2Cc3cc(CNC(=O)C(CNC(=O)C4CCCCC4)c4ccccc4)ccc3C2=O)C(=O)N1` (stereo not drawn) [Compound 5-25], the inhibition at 0.1 µM (100 nM, Jeko-1 cells, 24 hours) worked out at 58%. Besides, the inhibition at 10 µM (10 μM, Jeko-1 cells, 24 hours) is 96%.

As for `O=C1CCC(N2Cc3cc(CNC(=O)C(CNC(=O)c4ccccc4)c4ccccc4)ccc3C2=O)C(=O)N1` (stereo not drawn) [Compound 5-26], the inhibition at 0.1 µM was 33% and the inhibition at 10 µM worked out at 98%.

As to `O=C1CCC(N2Cc3cc(CNC(=O)C(NC(=O)CC4CCCC4)c4ccccc4)ccc3C2=O)C(=O)N1` (stereo not drawn) [Compound 5-29, 2-(2-cyclopentylacetamido)-N-((2-(2,6-dioxopyridin-3-yl)-1-oxoisoidoline-5-yl)methyl)-2-phenylacetamide], the inhibition at 0.1 µM (100 nM, Jeko-1 cells, 24 hours) was found to be 70%. Under “10 μM, Jeko-1 cells, 24 hours”, the inhibition at 10 µM was 97%.

Turning to `O=C1CCC(N2Cc3cc(CNC(=O)C(NC(=O)C4CCCC4)c4ccccc4)ccc3C2=O)C(=O)N1` (stereo not drawn) [Compound 5-30], the inhibition at 0.1 µM (100 nM, Jeko-1 cells, 24 hours) was 59%. Moreover, the inhibition at 10 µM (10 μM, Jeko-1 cells, 24 hours) was found to be 93%.
